According to patent publication US11491162B2, “Combination of quinoline-4-carboxamides and benzonaphthyridine derivatives as antimalarial drug combination” (Merck Patent GmbH, priority 2018, dated 2022):
Where “and” joins values, the source holds several entries; their conditions need not be identical. Equal entries are not always repeated. Structures can show the parent of a compound that is named as a salt. Where two headings read alike, the source gives them in different places.

How the values were obtained:
[1] = In vitro permeability in Caco-2 cells; type: in vitro ADME; conditions: human
Description: (§1) Caco-2 cells are maintained in DMEM in an atmosphere of 8.5% CO2. For transport experiments 0.125×10^6 cells/well of are seeded on polycarbonate filter inserts and are allowed to grow and differentiate for 14±1 days before the cell monolayers are used for experiments. Drug transport experiments are carried out using a cocktail approach in a four-dimensional setting. […] […] The assays are performed in HBSS containing 25 mM HEPES (pH 7.4) in an atmosphere of 5% CO2 at 37° C. Prior to the study, the monolayers are washed in pre-warmed HBSS. At the start of the experiments pre-warmed HBSS containing the test items is added to the donor side of the monolayer and HBSS without test items is added to the receiver side. The plates are shaken at 150 rpm at 37° C. during the experiment. After 2 h the Transwell insert containing the monolayer is carefully removed and placed in a new plate and aliquots of both the receiver and donor sides were taken and diluted with an equal volume of acetonitrile containing the internal standard. The mixture is centrifuged and supernatant analyzed by LC-MS/MS. The apparent permeability coefficients (Papp) are calculated using the formula: Papp=[Vrec/(A×C0,donor)](dCrec/dt)×10^6 with dCrev/dt being the change in concentration in the receiver compartment with time, Vrec the volume of the sample in the receiver compartment, C0, donor the concentration in the donor compartment at time 0, and A the area of the compartment with the cells.

[2] = test system: Caco-2 cells; test: In vitro permeability in Caco-2 cells; type: in vitro ADME; conditions: pH 7.4/7.4, Table 8
Description: as §1

[3] = test system: P. falciparum Pf3D7^0087/N9; test: In vivo SCID mouse model, oral therapeutic efficacy; design: species or system Plasmodium falciparum; conditions: for % control: day 7; for Activity: day 7 vs untreated control, succinate salt
Description: Compound efficacy was assessed against the Plasmodium falciparum strain Pf3D7^0087/N9 in vivo. Mice are infected intravenously with parasitized red blood cells on day 0. Experimental mice are generally treated at day 3, 4, 5, and 6 post-infection with an oral dose of the compound (single or 4-day oral dosing regimen) and are compared to an infected control group for reduction in parasitemia on day 7 (Maria Belen Jimenez-Díaz, Teresa Mulet, Sara Viera, Vanessa Gomez, Helen Garuti, Javier Ibanez, Angela Alvarez-Doval, Leonard D. Shultz, Antonio Martínez, Domingo Gargallo-Viola, and Inigo Angulo-Barturen, Improved Murine Model of Malaria Using Plasmodium falciparum Competent Strains and Non-Myelodepleted NOD-scid IL2Rgammanull Mice Engrafted with Human Erythrocytes, Antimicrob Agents Chemother. 2009, 53:4533).
PYRO and M1 were solubilized in a vehicle consisting of 70% Tween-80 and 30% ethanol, followed by a 10-fold dilution in H2O.

[4] = M1 4 × 0.2 MG/KG oral, SCID mice, Table 3
[5] = M1 4 × 0.4 MG/KG oral, SCID mice, Table 3
[6] = M1 4 × 0.6 MG/KG oral, SCID mice, Table 3
[7] = M1 4 × 1.2 MG/KG oral, SCID mice, Table 3
[8] = Table 4 entry 2: M1 4 × 1.2 mg/kg, PYRO 0 mg/kg, oral

Structure (SMILES): O=C(NCCN1CCCC1)c1cc(-c2ccc(CN3CCOCC3)cc2)nc2ccc(F)cc12 [M1, 6-fluoro-2-(4-morpholin-4-ylmethyl-phenyl)-quinoline-4-carboxylic acid (2-pyrrolidin-1-yl-ethyl)amide succinate salt]
- efflux ratio at 2 h, 1 μM ([1]; Caco-2, pH 7.4, PYRO 0 μM, pH 7.4/7.4, Table 8): 15.4
- efflux ratio at 2 h, 1 μM ([1]; Caco-2, pH 7.4, no P-gp inhibitor, pH 7.4/7.4, Table 7): 18.2
- recovery at 2 h, 1 μM ([1]; Caco-2, pH 7.4, no P-gp inhibitor, pH 7.4/7.4, Table 7, read-out: RECOVERY apical to basolateral (A-B)): 79.8%
- recovery at 2 h, 1 μM ([1]; Caco-2, pH 7.4, no P-gp inhibitor, pH 7.4/7.4, Table 7, read-out: RECOVERY basolateral to apical (B-A)): 65.4%
- recovery at 2 h, 1 μM ([1]; Caco-2, pH 7.4, with Cyclosporine A 10 μM, with Cyclosporine A 10 μM, pH 7.4/7.4, Table 7, read-out: RECOVERY apical to basolateral (A-B)): 72.5%
- recovery at 2 h, 1 μM ([1]; Caco-2, pH 7.4, with Cyclosporine A 10 μM, with Cyclosporine A 10 μM, pH 7.4/7.4, Table 7, read-out: RECOVERY basolateral to apical (B-A)): 86.3%
- efflux ratio at 2 h, 1 μM ([1]; Caco-2, pH 7.4, with PYRO 0.3 μM, PYRO 0.3 μM, pH 7.4/7.4, Table 8): 10.1
- efflux ratio at 2 h, 1 μM ([1]; Caco-2, pH 7.4, with PYRO 1 μM, PYRO 1 μM, pH 7.4/7.4, Table 8): 14.5
- efflux ratio at 2 h, 1 μM ([1]; Caco-2, pH 7.4, with PYRO 3 μM, PYRO 3 μM, pH 7.4/7.4, Table 8): 10.2
- efflux ratio at 2 h, 1 μM ([1]; Caco-2, pH 7.4, with PYRO 10 μM, PYRO 10 μM, pH 7.4/7.4, Table 8): 11
- efflux ratio at 2 h, 1 μM ([1]; Caco-2, pH 7.4, with PYRO 30 μM, PYRO 30 μM, pH 7.4/7.4, Table 8): 5.06
- efflux ratio at 2 h, 1 μM ([1]; Caco-2, pH 7.4, with PYRO 100 μM, PYRO 100 μM, pH 7.4/7.4, Table 8): 2.42
- Papp at 2 h, 1 μM ([1]; Caco-2, with PYRO 0.3 μM, PYRO 0.3 μM, pH 7.4/7.4, Table 8): 9.74 ×10⁻⁶ cm/s
- Papp A→B at 2 h, 1 μM ([1]; Caco-2, with PYRO 0.3 μM, PYRO 0.3 μM, pH 7.4/7.4, Table 8, read-out: PAPP (A-B)): 3.07 ×10⁻⁶ cm/s
- Papp at 2 h, 1 μM ([1]; Caco-2, with PYRO 1 μM, PYRO 1 μM, pH 7.4/7.4, Table 8): 8.25 ×10⁻⁶ cm/s
- Papp A→B at 2 h, 1 μM ([1]; Caco-2, with PYRO 1 μM, PYRO 1 μM, pH 7.4/7.4, Table 8, read-out: PAPP (A-B)): 2.17 ×10⁻⁶ cm/s
- Papp B→A at 2 h, 1 μM ([1]; Caco-2, with PYRO 1 μM, PYRO 1 μM, pH 7.4/7.4, Table 8, read-out: PAPP (B-A)): 31.4 ×10⁻⁶ cm/s
- Papp at 2 h, 1 μM ([1]; Caco-2, with PYRO 3 μM, PYRO 3 μM, pH 7.4/7.4, Table 8): 12.3 ×10⁻⁶ cm/s
- Papp A→B at 2 h, 1 μM ([1]; Caco-2, with PYRO 3 μM, PYRO 3 μM, pH 7.4/7.4, Table 8, read-out: PAPP (A-B)): 3.85 ×10⁻⁶ cm/s
- Papp B→A at 2 h, 1 μM ([1]; Caco-2, with PYRO 3 μM, PYRO 3 μM, pH 7.4/7.4, Table 8, read-out: PAPP (B-A)): 39.1 ×10⁻⁶ cm/s
- Papp at 2 h, 1 μM ([1]; Caco-2, with PYRO 10 μM, PYRO 10 μM, pH 7.4/7.4, Table 8): 11.3 ×10⁻⁶ cm/s
- Papp A→B at 2 h, 1 μM ([1]; Caco-2, with PYRO 10 μM, PYRO 10 μM, pH 7.4/7.4, Table 8, read-out: PAPP (A-B)): 3.42 ×10⁻⁶ cm/s
- Papp B→A at 2 h, 1 μM ([1]; Caco-2, with PYRO 10 μM, PYRO 10 μM, pH 7.4/7.4, Table 8, read-out: PAPP (B-A)): 37.6 ×10⁻⁶ cm/s
- Papp at 2 h, 1 μM ([1]; Caco-2, with PYRO 30 μM, PYRO 30 μM, pH 7.4/7.4, Table 8): 16.4 ×10⁻⁶ cm/s
- Papp A→B at 2 h, 1 μM ([1]; Caco-2, with PYRO 30 μM, PYRO 30 μM, pH 7.4/7.4, Table 8, read-out: PAPP (A-B)): 7.29 ×10⁻⁶ cm/s
- Papp B→A at 2 h, 1 μM ([1]; Caco-2, with PYRO 30 μM, PYRO 30 μM, pH 7.4/7.4, Table 8, read-out: PAPP (B-A)): 36.9 ×10⁻⁶ cm/s
- Papp at 2 h, 1 μM ([1]; Caco-2, with PYRO 100 μM, PYRO 100 μM, pH 7.4/7.4, Table 8): 30 ×10⁻⁶ cm/s
- Papp A→B at 2 h, 1 μM ([1]; Caco-2, with PYRO 100 μM, PYRO 100 μM, pH 7.4/7.4, Table 8, read-out: PAPP (A-B)): 19.3 ×10⁻⁶ cm/s
- Papp B→A at 2 h, 1 μM ([1]; Caco-2, with PYRO 100 μM, PYRO 100 μM, pH 7.4/7.4, Table 8, read-out: PAPP (B-A)): 46.7 ×10⁻⁶ cm/s
- Papp at 2 h, 1 μM ([1]; Caco-2, with none (PYRO 0 μM), PYRO 0 μM, pH 7.4/7.4, Table 8): 7.8 ×10⁻⁶ cm/s
- Papp A→B at 2 h, 1 μM ([1]; Caco-2, with none (PYRO 0 μM), PYRO 0 μM, pH 7.4/7.4, Table 8, read-out: PAPP (A-B)): 2 ×10⁻⁶ cm/s
- Papp B→A at 2 h, 1 μM ([1]; Caco-2, with none (PYRO 0 μM), PYRO 0 μM, pH 7.4/7.4, Table 8, read-out: PAPP (B-A)): 30.6 ×10⁻⁶ cm/s
- Papp A→B at 2 h, 1 μM ([1]; Caco-2, with none (no P-gp inhibitor), no P-gp inhibitor, pH 7.4/7.4, Table 7, read-out: PAPP apical to basolateral (A-B)): 2.97 ×10⁻⁶ cm/s
- Papp B→A at 2 h, 1 μM ([1]; Caco-2, with none (no P-gp inhibitor), no P-gp inhibitor, pH 7.4/7.4, Table 7, read-out: PAPP basolateral to apical (B-A)): 54.2 ×10⁻⁶ cm/s
- PAPP (A-B) ([2]; PYRO 0 μM): 2.00 10E−6 CM/S
- PAPP (B-A) ([2]; PYRO 0.3 μM): 30.90 10E−6 CM/S
- PAPP (A-B) ([2]; PYRO 100 μM): 19.3 10E−6 CM/S
- % PARASITEMIA day 3 post infection [3, 4]: 0.85%
- % PARASITEMIA day 4 post infection [3, 4]: 1.33%
- % PARASITEMIA day 5 post infection [3, 4]: 3.10%
- % PARASITEMIA day 6 post infection [3, 4]: 3.35%
- % PARASITEMIA day 7 post infection [3, 4]: 6.55%
- % control ([3]; M1 4 × 0.2 MG/KG oral, SCID mice): 71.7%
- Activity ([3]; M1 4 × 0.2 MG/KG oral, SCID mice, 0.2 mg/kg): 28.3%
- % PARASITEMIA day 3 post infection [3, 5]: 0.70%
- % PARASITEMIA day 4 post infection [3, 5]: 1.38%
- % PARASITEMIA day 5 post infection [3, 5]: 1.18%
- % PARASITEMIA day 6 post infection [3, 5]: 0.75%
- % PARASITEMIA day 7 post infection [3, 5]: 0.55%
- % control ([3]; M1 4 × 0.4 MG/KG oral, SCID mice): 6.0%
- Activity ([3]; M1 4 × 0.4 MG/KG oral, SCID mice, 0.4 mg/kg): 94.9% and 94.0%
- % PARASITEMIA day 3 post infection [3, 6]: 0.63%
- % PARASITEMIA day 4 post infection [3, 6]: 0.70%
- % PARASITEMIA day 5 post infection [3, 6]: 0.60%
- % PARASITEMIA day 6 post infection [3, 6]: 0.13%
- % PARASITEMIA day 7 post infection [3, 6]: 0.03%
- % control ([3]; M1 4 × 0.6 MG/KG oral, SCID mice): 0.3%
- Activity ([3]; M1 4 × 0.6 MG/KG oral, SCID mice, 0.6 mg/kg): 99.7%
- % PARASITEMIA day 3 post infection [3, 7]: 0.50%
- % PARASITEMIA day 4 post infection [3, 7]: 0.75%
- % PARASITEMIA day 5 post infection [3, 7]: 0.43%
- % PARASITEMIA day 6 post infection [3, 7]: 0.05%
- % PARASITEMIA day 7 post infection ([3]; M1 4 × 1.2 MG/KG oral, SCID mice, Table 3, LLQ = <0.01% parasitemia): <LLQ
- % control ([3]; M1 4 × 1.2 MG/KG oral, SCID mice, LLQ = <0.01% parasitemia): <LLQ
- Activity ([3]; M1 4 × 1.2 MG/KG oral, SCID mice, 1.2 mg/kg): 100%
- ED90 ([3]; M1, 4-day oral dosing, SCID mice, dose as free base): 0.37 mg/kg
- % PARASITEMIA day 3 post infection [3, 8]: 0.99%
- % PARASITEMIA day 4 post infection [3, 8]: 1.04%
- % PARASITEMIA day 5 post infection [3, 8]: 0.7%
- % PARASITEMIA day 6 post infection [3, 8]: 0.12%
- % PARASITEMIA day 7 post infection [3, 8]: 0.01%
- % PARASITEMIA day 10 post infection ([3]; Table 4 entry 2: M1 4 × 1.2 mg/kg, PYRO 0 mg/kg, oral, LLQ = <0.01% parasitemia): <LLQ
